From patent US11447504B2, “Macrocyclic chlorine substituted indole derivatives” (Bayer Aktiengesellschaft, priority 2017, dated 2022)
Several values for one entry are separate records, joined by “and”; a condition that tells them apart may be missing. Identical values can stand only once. Like-named read-outs stand apart in the source and are kept apart here.

How the values were obtained:
[1] = test system: SUDHL10; assay: Induction of caspase-3/7 activity (Assay 4), SUDHL10; format: cell-based; settings: SUDHL10 cells
How it was run: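 Luminescent Caspase-Glo 3/7 read-out after a 3 h, 37 °C compound exposure of the DLBCL line SUDHL10. Values are background-corrected using medium-only wells.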

[2] = test system: SUDHL5; assay: Induction of cytotoxicity (Assay 6), SUDHL5
[3] = test system: SK-BR-3; assay: Antiproliferation assay 7, SK-BR-3; format: cell-based; settings: Homo sapiens; SK-BR-3 cells, 72 hours, CellTiter-Glo; read-out: Antiproli SK-BR-3 IC50 median
Protocol: (§1) Assessment of the Anti-Proliferative Effect of Compounds in Different Cell Lines
(§2) The impact of compounds on the proliferation of different cell lines was assessed using the CellTiter-Glo® Luminescent Cell Viability reagent from Promega (G7573).
(§3) In parallel, cells were plated in a reference (day 0) plate for time zero determination.
(§4) Rim wells were excluded. The cells were incubated for 72 hours in a humidified incubator at 37° C. The day 0 plate was measured by adding 30 μL/well of CTG solution (CellTiter-Glo® Luminescent Cell Viability reagent, Promega G7573) to time zero wells in the reference plate followed by a 10 minutes incubation and luminescence reading at 0.1 ms. using the PHERAstar FS microplate reader (BMG Labtech).
(§5) After 72 hours incubation, the treated plates were measured in the same way as the day 0 plate mentioned above.

[4] = test system: MV-4-11; assay: Antiproliferation assay 7, MV-4-11; format: cell-based; settings: MV-4-11 cells, CellTiter-Glo, read-out: Antiproli MV-4-11 IC50 median
How it was run: (§6)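 Proliferation was read by CellTiter-Glo luminescence after 72 hours of compound treatment at 37° C. The read was referenced to a parallel plate measured at time zero.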

[5] = test system: AMO-1; assay: Antiproliferation assay 7, AMO-1; format: cell-based; settings: AMO-1 cells, CellTiter-Glo, read-out: Antiproli AMO-1 IC50 median
How it was run: as §6

[6] = test system: HMC-1-8; assay: Antiproliferation assay 7, HMC-1-8; format: cell-based; settings: HMC-1-8 cells, CellTiter-Glo, read-out: Antiproli HMC-1-8 IC50 median
How it was run: as §6

[7] = test system: SUDHL5; assay: Antiproliferation assay 7, SUDHL5; format: cell-based; settings: SUDHL5 cells, CellTiter-Glo, read-out: Antiproli SUDHL5 IC50 (median)
How it was run: as §6

[8] = test system: SUDHL10; assay: Induction of cytotoxicity (Assay 6), SUDHL10
[9] = test system: SUDHL5; assay: Induction of caspase-3/7 activity (Assay 4), SUDHL5; format: cell-based; settings: SUDHL5 cells
How it was run: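 DLBCL cells treated with compounds for 3 hours at 37° C. Caspase-3/7 activity measured by Caspase-Glo 3/7 luminescence, with medium-only background subtracted.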

[10] = molecular target: BCL-XL (Homo sapiens (Human), UniProt Q07817); assay: Protein-protein interaction assay BCL-XL/Bad BH3 peptide (BCL-XL Assay, TR-FRET); format: binding; settings: read-out: BCL-XL Assay IC50 (median)
Protocol: Assay 2 Protein-Protein Interaction Assay: BCL-XL/Bad BH3 Peptide (BCL-XL Assay)
The dose-dependent inhibition by the compounds described in this invention of the interaction between BCL-XL and the BH3 domain of Bad (both human) was determined using a steady state binding competition assay with time-resolved fluorescence energy transfer (TR-FRET) readout.
(§7) For that, 100-fold concentrated DMSO solutions were prepared by serial dilutions (1:3.4) of a 2 mM stock solution in a clear, 384-well microtiter plate (Greiner Bio-One, Frickenhausen, Germany). From there, 50 nl were transferred in a dark test plate (Greiner Bio-One, Frickenhausen, Germany). […] This was followed by a 10-minute incubation step at 22° C. for pre-equilibration of the putative complex between His-BCL-XL and the compounds.
The mixture was incubated in the dark for one hour at 22° C. and then overnight at 4° C. The formation of BCL-XL/Bad complexes was determined by measuring the resonance energy transfer of the anti-His- Eu-cryptate antibody to the streptavidin-XL665 present in the reaction.
(§8) The resulting data (ratio) were normalized, taking 0% inhibition as the mean value of control measurements (usually 32 data points) where all reagents were included. In this case 50 nl DMSO were used instead of compounds. […] IC50 values were determined by regression analysis based on a 4 parameter equation (minimum, maximum, IC50, Hill; Y=Max+(Min−Max)/(1+(X/IC50)^Hill) using the Screener Software (Genedata).

[11] = molecular target: MCL-1 (Homo sapiens (Human), UniProt Q07820, K194A/K197A/R201A); assay: Protein-protein interaction assay MCL-1/Noxa BH3 peptide (MCL-1 Assay, TR-FRET); format: binding; settings: read-out: MCL-1 Assay IC50 (median)
Protocol: The dose-dependent inhibition by the compounds described in this invention of the interaction between MCL-1 and the BH3 domain of Noxa (both human) was determined using a steady state binding competition assay with time-resolved fluorescence energy transfer (TR-FRET) readout. […] The MBP-MCL-1 was purchased from Beryllium (Bedford, Mass., USA). The expression and purification of this protein construct has been described elsewhere (DOI:10.1371/journal.pone.0125010). The Noxa BH3-derived peptide can be obtained from e.g. Biosyntan (Berlin, Germany).
as §7, with “MBP-MCL-1” for “His-BCL-XL”
(§9) The mixture was incubated in the dark for one hour at 22° C. and then overnight at 4° C.
as §8

[12] = molecular target: BCL-2 (Homo sapiens (Human), UniProt P10415); assay: Protein-protein interaction assay BCL-2/Bad BH3 peptide (BCL-2 Assay, TR-FRET); format: binding; settings: read-out: BCL-2 Assay IC50 (median)
Protocol: The dose-dependent inhibition by the compounds described in this invention of the interaction between BCL-2 and the BH3 domain of Bad (both human) was determined using a steady state binding competition assay with time-resolved fluorescence energy transfer (TR-FRET) readout.
as §7, with “His-BCL-2” for “His-BCL-XL”
as §9, §8

[13] = test system: SUDHL10; assay: Antiproliferation assay 7, SUDHL10; format: cell-based; settings: Homo sapiens, SU-DHL10, 72 h, SUDHL10 cells, CellTiter-Glo, read-out: Antiproli SUDHL10 IC50 (median)
Protocol: as §1, §2, §3, §4, §5

[14] = Homo sapiens, SU-DHL10, 3 h, Caspase-Glo 3/7, read-out: Caspase SUDHL10 EC50 (median)
[15] = Homo sapiens, SU-DHL-5, 5 h, read-out: Cytotox SUDHL5 IC50 (median), SUDHL5 cells, 5 hours, CellTiter-Glo
[16] = Homo sapiens, SU-DHL10, 5 h, read-out: Cytotox SUDHL10 IC50 (median), SUDHL10 cells, 5 hours, CellTiter-Glo
[17] = Homo sapiens, SU-DHL-5, 3 h, Caspase-Glo 3/7, read-out: Caspase SUDHL5 EC50 (median)
[18] = read-out: Cytotox SUDHL5 IC50 (median), SUDHL5 cells, 5 hours, CellTiter-Glo
[19] = 3 hours, Caspase-Glo 3/7, read-out: Caspase SUDHL5 EC50 (median)

MCL-1, sequence (Q07820 whole entry K194A/K197A/R201A, looked up, the tested form may be a part): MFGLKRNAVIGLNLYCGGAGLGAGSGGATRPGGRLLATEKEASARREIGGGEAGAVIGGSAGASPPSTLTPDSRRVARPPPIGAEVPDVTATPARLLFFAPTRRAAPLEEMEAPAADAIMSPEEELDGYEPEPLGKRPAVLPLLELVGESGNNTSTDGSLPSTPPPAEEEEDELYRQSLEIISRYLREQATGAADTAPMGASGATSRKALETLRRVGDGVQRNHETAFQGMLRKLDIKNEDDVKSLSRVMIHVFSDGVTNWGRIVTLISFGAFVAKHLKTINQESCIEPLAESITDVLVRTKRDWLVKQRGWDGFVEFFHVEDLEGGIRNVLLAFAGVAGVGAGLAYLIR
BCL-2, sequence (P10415 other isoform, or with tags, fused parts or gaps): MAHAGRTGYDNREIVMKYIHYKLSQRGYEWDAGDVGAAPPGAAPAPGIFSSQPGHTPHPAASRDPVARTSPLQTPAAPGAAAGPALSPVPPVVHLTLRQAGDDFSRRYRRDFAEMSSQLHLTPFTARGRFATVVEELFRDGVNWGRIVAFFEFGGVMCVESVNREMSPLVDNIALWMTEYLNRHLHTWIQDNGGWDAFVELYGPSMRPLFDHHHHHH
BCL-XL, sequence (Q07817 other isoform, or with tags, fused parts or gaps): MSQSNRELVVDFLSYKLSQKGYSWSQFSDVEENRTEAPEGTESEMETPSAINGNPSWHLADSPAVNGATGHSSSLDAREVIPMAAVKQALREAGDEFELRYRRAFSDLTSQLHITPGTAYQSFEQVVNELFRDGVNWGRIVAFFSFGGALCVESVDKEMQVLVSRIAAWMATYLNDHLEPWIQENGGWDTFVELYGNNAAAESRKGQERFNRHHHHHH

| Compound | EC50 [1, 14] [µM] | IC50 [2, 15] [µM] | IC50 [3] [µM] | IC50 ([4]; Homo sapiens, MV4-11, 72 h) [µM] | IC50 ([5]; Homo sapiens, AMO1, 72 h) [µM] | IC50 ([6]; 72 h) [µM] | IC50 ([7]; Homo sapiens, SU-DHL-5, 72 h) [µM] | IC50 [8, 16] [µM] | EC50 [9, 17] [µM] | IC50 [10] [µM] | IC50 [11] [µM] | IC50 [12] | other results |
| --- | --- | --- | --- | --- | --- | --- | --- | --- | --- | --- | --- | --- | --- |
| Cc1c2c(nn1C)CN(C)CCCCn1c(C(=O)O)c(CCCOc3cccc4ccccc34)c3ccc(Cl)c-2c31 (racemic) [Example 11, (rac)-4-chloro-2,3,14-trimethyl-7-[3-(naphthalen-1-yloxy)propyl]-10,11,12,13,14,15-hexahydro-2H-pyrazolo[3′,4′:8,9][1,6]diazacycloundecino[10,11,1-hi]indole-8-carboxylic Acid] | 0.26 | 0.18 | 1.48 | 0.442 | 0.728 | 4.19 | 0.3 | 0.37 | 0.14 |  |  |  |  |
| CCc1c2c(nn1C)COC/C=C\Cn1c(C(=O)O)c(CCCOc3cccc4ccccc34)c3ccc(Cl)c-2c31 (racemic) [Example 18, (rac)-(11 Z)-4-chloro-3-ethyl-2-methyl-7-[3-(naphthalen-1-yloxy)propyl]-2,10,13,15-tetrahydropyrazolo[4′,3′:9,10][1,6]oxazacycloundecino[8,7,6-hi]indole-8-carboxylic Acid] | 1.3 | 1.2 |  | 4.71 |  |  | 1.4 | 1.3 | 1.1 | > 20 | 0.0013 | > 20 µM and 18.7 µM and 20.2 µM |  |
| CCc1c2c(nn1C)COCCCCn1c(C(=O)O)c(CCCOc3cccc4ccccc34)c3ccc(Cl)c-2c31 (racemic) [Example 19, (rac)-4-chloro-3-ethyl-2-methyl-7-[3-(naphthalen-1-yloxy)propyl]-2,10,11,12,13,15-hexahydropyrazolo[4′,3′:9,10][1,6]oxazacycloundecino[8,7,6-hi]indole-8-carboxylic Acid] | 0.32 | 0.48 | 3.26 | 1.65 |  |  | 0.57 | 0.44 | 0.34 |  |  |  |  |
| CCc1c2c(nn1C)CN(C)CCCCn1c(C(=O)O)c(CCCOc3cccc4ccccc34)c3ccc(Cl)c-2c31 (racemic) [Example 22, (rac)-4-chloro-3-ethyl-2,14-dimethyl-7-[3-(naphthalen-1-yloxy)propyl]-10,11,12,13,14,15-hexahydro-2H-pyrazolo[3′,4′:8,9][1,6]diazacycloundecino[10,11,1-hi]indole-8-carboxylic Acid] | 0.27 | 0.16 | 0.894 | 0.692 | 0.659 |  | 0.28 | 0.4 | 0.14 |  |  |  |  |
| CCc1c2c(nn1C)N(C)CCCCCn1c(C(=O)O)c(CCCOc3cccc4cc(F)ccc34)c3ccc(Cl)c-2c31 (racemic) [Example 77, (rac)-4-chloro-3-ethyl-7-{3-[(6-fluoronaphthalen-1-yl)oxy]propyl}-2,15-dimethyl-10,11,12,13,14,15-hexahydro-2H-pyrazolo[4′,3′:4,5][1,6]diazacycloundecino[3,2,1-hi]indole-8-carboxylic Acid] | 0.49 | 0.45 |  |  | 0.53 | 3.3 | 0.97 | 0.87 | 0.48 | > 20 | 0.0011 | 17 µM |  |
| Cc1c2c(nn1C)N(C)CCCCCn1c(C(=O)O)c(CCCOc3cccc4ccccc34)c3ccc(Cl)c-2c31 (single isomer, unassigned) [Example 73, (−)-4-chloro-2,3,15-trimethyl-7-{3-[(naphthalen-1-yl)oxy]propyl}-10,11,12,13,14,15-hexahydro-2H-pyrazolo[4′,3′:4,5][1,6]diazacycloundecino[3,2,1-hi]indole-8-carboxylic acid] |  |  |  |  |  |  |  |  |  | > 20 | 0.016 | > 20 µM | EC50 ([1]; 3 hours, Caspase-Glo 3/7, read-out: Caspase SUDHL10 EC50 (median)): 18 µM; IC50 [2, 18]: 14 µM; IC50 ([5]; 72 hours): 18 µM; IC50 ([6]; 72 hours): 24 µM; IC50 ([8]; read-out: Cytotox SUDHL10 IC50 (median), SUDHL10 cells, 5 hours, CellTiter-Glo): 26 µM; EC50 [9, 19]: 15 µM |
| CCc1c2c(nn1C)COCCCCn1c(C(=O)O)c(CCCOc3cccc4ccccc34)c3ccc(Cl)c-2c31 (single isomer, unassigned; enantiomer 1) [Example 20, 4-chloro-3-ethyl-2-methyl-7-[3-(naphthalen-1-yloxy)propyl]-2,10,11,12,13,15-hexahydropyrazolo[4′,3′:9,10][1,6]oxazacycloundecino[8,7,6-hi]indole-8-carboxylic Acid (Enantiomer 1)] |  |  | 2.52 |  | 0.874 | 2.47 |  |  |  |  |  |  | IC50 [2, 18]: 0.17 µM; IC50 ([4]; 72 hours): 0.907 µM; IC50 [13]: 0.45 µM; IC50 ([7]; 72 hours): 0.22 µM; EC50 [9, 19]: 0.14 µM |
